[ ]: non-standard residue; d: D form.
How the values were obtained:
[1] = tested on: UCLAP-3 tumors; assay: Tumor regression in the CAM assay, UCLAP-3; assay type: in vivo, chick; conditions: 100 μg intravenously 18 hours post-implantation; FIG. 15
Method: As described in Example 5, in addition to visually assessing the effect of anti-αvβ3 antagonists on growth factor or tumor induced angiogenesis, the effect of the antagonists was also assessed by measuring any changes to the tumor mass following exposure. For this analysis, the tumor-induced angiogenesis CAM assay system was prepared as described in Example 4C. At the end of the 7 day incubation period, the resulting tumors were resected from the CAMs and trimmed free of any residual CAM tissue, washed with 1 ml of phosphate buffer saline and wet weights were determined for each tumor.
To further assess the effects of αvβ3 antagonists on tumor growth and survival, fragments of human melanoma and fragments of carcinomas of the lung, pancreas, and larynx were placed on CAMS of 10-day old embryos as described in Example 3A.
Additional tumor regression assays were performed with the αvβ3-reactive peptide 85189 (SEQ ID NO: 15) against 69601 as a control. The assays were performed as described above with the exception that 100 μg of peptide was intravenously injected into the CAM at 18 hours post-implantation. After 48 hours more, the tumors were then resected and wet weights were obtained.

[2] = tested on: M21-L melanoma tumor; assay: In vivo chimeric mouse:human assay; design: species or system SCID mouse; conditions: intravenous, FIG. 18
Method: An in vivo chimeric mouse:human model was generated by replacing a portion of skin from a SCID mouse with human neonatal foreskin (FIG. 4). After the skin graft was established, the human foreskin was inoculated with carcinoma cells. After a measurable tumor was established, either an αvβ3 antagonist or PBS was injected into the mouse tail vein. Following a 2-3 week period, the tumor was excised and analyzed by weight and histology.
The in vivo chimeric mouse:human model is prepared essentially as described in Yan, et al., J. Clin. Invest., 91:986-996 (1993). Briefly, a 2 cm^2 square area of skin was surgically removed from a SCID mouse (6-8 weeks of age) and replaced with a human foreskin. The mouse was anesthetized and the hair removed from a 5 cm^2 area on each side of the lateral abdominal region by shaving. Two circular graft beds of 2 cm^2 were prepared by removing the full thickness of skin down to the fascia. Full thickness human skin grafts of the same size derived from human neonatal foreskin were placed onto the wound beds and sutured into place. […]
In a procedure similar to that described above for monoclonal antibodies, peptide antagonists of αvβ3 were injected intravenously into the tail vein of SCID mice having measurable M21-L tumors. […] The mean volume and weight of resected tumors following treatment were determined with the results respectively shown in FIGS. 19A and 19B.

[3] = tested on: growth factor-induced corneal angiogenesis; assay: In vivo rabbit eye model assay; conditions: both vFGF and VEGF stimulated eyes
Description: The effect of anti-αvβ3 antagonists on growth factor-induced angiogenesis can be observed in naturally transparent structures as exemplified by the cornea of the eye. […] Stimulators of angiogenesis, such as bFGF, when applied to the cornea induce the growth of new blood vessels from the rim of the cornea. Antagonists of angiogenesis, applied to the cornea, inhibit the growth of new blood vessels from the rim of the cornea. Thus, the cornea undergoes angiogenesis through an invasion of endothelial cells from the rim of the cornea into the tough collagen-packed corneal tissue which is easily visible. The rabbit eye model assay therefore provides an in vivo model for the direct observation of stimulation and inhibition of angiogenesis following the implantation of compounds directly into the cornea of the eye.
Each experiment consisted of eight rabbits in which one eye received a pellet comprising 100 nanograms (ng) bFGF and the other eye received a pellet comprising 1 microgram (μg) VEGF. The pellets were inserted into the corneal pocket as described above, and the cytokines subsequently stimulated the growth of new blood vessels into the cornea. […] After 7 days, the cornea were evaluated as described above.

[4] = tested on: αvβ3-expressing CS-1 cells; assay: Inhibition of cell attachment assay; assay type: cell-based, hamster
Method: As one means to determine integrin receptor specificity of the antagonists of this invention, inhibition of cell attachment assays were performed as described below.
Briefly, CS-1 hamster melanoma cells lacking expression of αvβ3 and αvβ5 were first transfected with an plasmid for expressing the […] as previously described by Filardo et al., J. Cell Biol., 130:441-450 (1995). Specificity of potential αvβ3 antagonists was determined by the ability to block the binding of αvβ3-expressing CS-1 cells to VN or laminin coated plates. As an example of a typical assay, the wells were first coated with 10 μg/ml substrate overnight. After rinsing and blocking with 1% heat-denatured BSA in PBS at room temperature for 30 minutes, peptide 85189 (SEQ ID NO: 15) over a concentration range of 0.0001 μM to 100 μM, was separately mixed with CS-1 cells for applying to wells with a cell number of 50, 000 cells/well. After a 10-15 minute incubation at 37° C., the solution containing the cells and peptides was discarded. The number of attached cells was then determined following staining with 1% crystal violet. Cell associated crystal violet was eluted by the addition of 100 microliters (μl) of 10% acetic acid. Cell adhesion was quantified by measuring the optical density of the eluted crystal violet at a wave length of 600 nm.

Substance	effect on tumor weight, UCLAP-3 [1]	tumor volume [2]	corneal blood vessel growth at 7 days [3]	inhibition of β3-expressing CS-1 cell adhesion to laminin ([4]; laminin)	inhibition of β3-expressing CS-1 cell adhesion to vitronectin ([4]; vitronectin)
cyclo (RADfV) (cyclo(RAD[dF]V); SMILES CC(C)[C@@H]1NC(=O)[C@@H](Cc2ccccc2)NC(=O)[C@H](CC(=O)O)NC(=O)[C@H](C)NC(=O)[C@H](CCCNC(=N)N)NC1=O) [Peptide 69601, reference compound]	lack of effect	approximately 360 mm^3	substantial corneal blood vessel growth		
cyclo (RGDfV) [Peptide 66203]				but not laminin	inhibited
